Experimental data from patent US20060189699A1, “Antimicrobial trinervitane derivatives” (Commonwealth Scientific and Industrial Researh Org, priority 2003, published 2006).
“Also recorded” adds a separate entry of the source. Where two headings read alike, the source gives them in different places.

Assays:
[1] = system: Bacillus subtilis (ATCC Strain 6633); assay: modified agar bioassay for weak antimicrobial activity (clear zone); format: cell-based; details: for level of antimicrobial activity relative to trinervitadienes previously isolated from N. triodiae: screening assays, qualitative, potency not determined quantitatively
Description: Extracts of the worker and soldier castes of the nasute termite species Nasutitermes exitiosus (Hill) (Isoptera:Termitidae) were screened against Bacillus subtilis (ATCC Strain 6633) at a concentration of 4.0 mg/ml in a bioassay. […] The only difference between the assay used in the current work and that described previously (WO 01/90035) is that in the current case the density of bacterial cells in the Luria-Bertani agar medium was ten times lower than that described in the earlier specification.
Twelve mL of a 70% methanol extract of N. exitiosus soldiers (containing 86 mg of solute) was fractionated by reverse-phase HPLC using a semi-preparative column at a flow rate of 4 ml/min and a gradient from water containing 0.05% (v/v) trifluroacetic acid to 100% acetonitrile over 20 minutes and then 100% acetonitrile for a further 15 minutes. The UV absorbance of the eluant was monitored at 230 nm. Fractions were collected over 35 minutes. Corresponding fractions were pooled across replicate separation runs and the pooled fractions were evaporated to dryness under nitrogen. Residues of the fractions were redissolved in HPLC grade water (fractions from 1-8 minutes), 70% aqueous methanol (9-15 minutes), or methanol (16-35 minutes).

Bacillus subtilis = details: WO 01/90035, as compound 9; cited from earlier work
[2] = isolated HPLC sub-fractions / purified compounds
[3] = purified components of fraction F2, modified antimicrobial assay

Row | Molecule | antimicrobial / biological activity [1, 2] | level of antimicrobial activity relative to trinervitadienes previously isolated from N. triodiae [1] | antimicrobial / biological activity [1] | clear zone diameter ([1]; pooled reverse-phase HPLC fractions of soldier extract, quantity corresponding to 20 μL of crude extract) | clear zone diameter [1, 3] | antimicrobial activity shown in the earlier patent specification (Bacillus subtilis)
1 | 1(15),8(9)-trinervitadiene-3α-ol-2-one | biologically active; also recorded: antimicrobial compound; also recorded: confirmed | qualitatively similar levels of antimicrobial activity |  |  |  | 
2 | 1(15),8(19)-trinervitadiene-2β,3α,9α-triol 2,3,9-triacetate [U] |  | qualitatively similar levels of antimicrobial activity | biologically active; also recorded: antimicrobial activity; also recorded: confirmed |  |  | 
3 | C=C1/C2=C\C[C@@H](C)C/C=C/C(=C)[C@@H]3CC[C@@](C)([C@H]13)[C@@H](O)[C@@H]2O [P, 9E-1(14),8(19),9(10),15(17)-trinervitatetraene-2β,3α-diol] |  | qualitatively similar levels of antimicrobial activity |  | 4 mm |  | 
4 | C=C1/C2=C\C[C@@H](C)CCCC(=C)[C@@H]3CC[C@@](C)([C@H]13)[C@@H](O)[C@@H]2O [Q, 1(14),8(19),15(17)-trinervitatriene-2β,3α-diol] | biologically active | qualitatively similar levels of antimicrobial activity |  |  | 4 mm | 
5 | C=C1/C2=C\C[C@@H](C)CCC/C(C)=C3/CC[C@@](C)([C@H]13)[C@@H](O)[C@@H]2O [R, 1(14),7(8),15(17)-trinervitatriene-2β,3α-diol] | biologically active | qualitatively similar levels of antimicrobial activity |  |  | 5 mm | 
6 | C/C1=C/CC[C@H](C)CCC2C(C)[C@@H]3C1CC[C@]3(C)[C@@H](O)[C@@H]2O (stereo partly drawn) [S, 1(15),8(9)-trinervitadiene-2β,3α-diol] | biologically active; also recorded: confirmed |  |  |  |  | antimicrobial activity
